Experimental data as given in patent US20020137929A1, “1 - (3-heterocyclylphenyl) isothiourea, -isourea, -guanidine and -amidine herbicidal agents” (Intellectual Property Department, BASF Aktiengesellschaft, priority 1998, published 2002).

Key:
[1] = test system: AMBEL (Ragweed, Common); test: Preemergence herbicidal evaluation; type: in vivo, Ambrosia artemisifolia; settings: rated 4-5 weeks after treatment, rating scale 0-9
How it was run: (§1)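 Herbicidal effect scored visually, 0-9, at 4 to 5 weeks against a control; compound applied preemergence by aqueous acetone spray to seeded soil at about 0.0156 to 0.500 kg/ha.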

[2] = test system: ECHCG (Barnyardgrass); test: Preemergence herbicidal evaluation; type: in vivo, Echinochloa crus-galli; settings: rated 4-5 weeks after treatment, rating scale 0-9
How it was run: as §1

[3] = test system: GLXMAW (Soybean, Williams); test: Postemergence herbicidal evaluation; type: in vivo, Glycine max, (L.) Merr. cv Williams; settings: postemergence
How it was run: (§2)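 Two-week seedlings sprayed postemergence at 40 psi; formulation: 1:1 acetone/water, 0.5% TWEEN 20; application ≈0.0156–0.500 kg/ha. Greenhouse grow-out, then 0–9 visual scoring at 4–5 weeks.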

[4] = test system: ECHORC (Watergrass (Calif.)); test: Preemergence weed control under flooded paddy conditions; type: in vivo, Echinochloa oryzoides; settings: rated 3-4 weeks after treatment
How it was run: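 Herbicidal effect is scored visually on a 0-9 scale against an untreated control, three to four weeks after compounds are pipetted into the flood water (1.5 to 3 cm deep) over seeds planted in silt loam at 0.5 cm depth. Rates: about 0.0313 to 0.500 kg/ha.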

[5] = test system: ABUTH (Velvetleaf); test: Postemergence herbicidal evaluation; type: in vivo, Abutilon theophrasti; settings: postemergence
How it was run: as §2

[6] = test system: ZEAMX (Corn, Field); test: Postemergence herbicidal evaluation; type: in vivo, Zea mays; settings: postemergence
How it was run: as §2

[7] = test system: CASOB (Sicklepod); test: Preemergence herbicidal evaluation; type: in vivo, Cassia obtusifolia; settings: rated 4-5 weeks after treatment, rating scale 0-9
How it was run: as §1

[8] = test system: ABUTH (Velvetleaf); test: Preemergence herbicidal evaluation; type: in vivo, Abutilon theophrasti; settings: rated 4-5 weeks after treatment, rating scale 0-9
How it was run: as §1

[9] = test system: CYPSE (Flatsedge); test: Preemergence weed control under flooded paddy conditions; type: in vivo, Cyperus serotinus; settings: rated 3-4 weeks after treatment
How it was run: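 Using flooded silt loam (water 1.5 to 3 cm deep), seeds sown in the top 0.5 cm were exposed preemergence to compound pipetted into the flood at about 0.0313 to 0.500 kg/ha. Effects were scored 0-9 by eye three to four weeks later.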

[10] = test system: SETVI (Foxtail, Green); test: Postemergence herbicidal evaluation; type: in vivo, Setaria viridis; settings: postemergence
How it was run: as §2

[11] = test system: IPOHE (Morningglory, Ivyleaf); test: Preemergence herbicidal evaluation; type: in vivo, Ipomoea hederacea; settings: rated 4-5 weeks after treatment, rating scale 0-9
How it was run: as §1

[12] = test system: IPOHE (Morningglory, Ivyleaf); test: Postemergence herbicidal evaluation; type: in vivo, Ipomoea hederacea; settings: postemergence
How it was run: as §2

Cn1c(C(F)(F)F)cc(=O)n(-c2cc(N=C3SCC(=O)N3Cc3ccccc3Cl)c(Cl)cc2F)c1=O [Compound 143]
Preemergence herbicidal rating AMBEL ([1]; rate 0.0313 kg/ha): 0.0 | Preemergence herbicidal rating AMBEL ([1]; rate 0.0625 kg/ha): 0.0 | Preemergence herbicidal rating AMBEL ([1]; rate 0.1250 kg/ha): 2.0 | Preemergence herbicidal rating AMBEL ([1]; rate 0.2500 kg/ha): 3.0 | Preemergence herbicidal rating ECHCG ([2]; rate 0.0313 kg/ha): 0.0 | Preemergence herbicidal rating ECHCG ([2]; rate 0.0625 kg/ha): 0.0 | Preemergence herbicidal rating ECHCG ([2]; rate 0.1250 kg/ha): 1.0 | Preemergence herbicidal rating ECHCG ([2]; rate 0.2500 kg/ha): 1.0 | herbicidal rating GLXMAW ([3]; rate 0.0156 kg/ha): 4.0 | herbicidal rating GLXMAW ([3]; rate 0.0313 kg/ha): 4.5 | herbicidal rating GLXMAW ([3]; rate 0.0625 kg/ha): 5.0 | herbicidal effect rating, ECHORC ([4]; 0.0313 kg/ha): 5.0 | herbicidal effect rating, ECHORC ([4]; 0.0625 kg/ha): 7.0 | herbicidal effect rating, ECHORC ([4]; 0.1250 kg/ha): 9.0 | herbicidal effect rating, ECHORC ([4]; 0.2500 kg/ha): 9.0 | herbicidal rating ABUTH ([5]; rate 0.0156 kg/ha): 9.0 | herbicidal rating ABUTH ([5]; rate 0.0313 kg/ha): 9.0 | herbicidal rating ABUTH ([5]; rate 0.0625 kg/ha): 9.0 | herbicidal rating ZEAMX ([6]; rate 0.0156 kg/ha): 4.0 | herbicidal rating ZEAMX ([6]; rate 0.0313 kg/ha): 4.0 | herbicidal rating ZEAMX ([6]; rate 0.0625 kg/ha): 4.0 | Preemergence herbicidal rating CASOB ([7]; rate 0.0313 kg/ha): 0.0 | Preemergence herbicidal rating CASOB ([7]; rate 0.0625 kg/ha): 0.0 | Preemergence herbicidal rating CASOB ([7]; rate 0.1250 kg/ha): 0.0 | Preemergence herbicidal rating CASOB ([7]; rate 0.2500 kg/ha): 1.0 | Preemergence herbicidal rating ABUTH ([8]; rate 0.0313 kg/ha): 1.0 | Preemergence herbicidal rating ABUTH ([8]; rate 0.0625 kg/ha): 1.0 | Preemergence herbicidal rating ABUTH ([8]; rate 0.1250 kg/ha): 6.0 | Preemergence herbicidal rating ABUTH ([8]; rate 0.2500 kg/ha): 9.0 | herbicidal effect rating, CYPSE ([9]; 0.0313 kg/ha): 0.0 | herbicidal effect rating, CYPSE ([9]; 0.0625 kg/ha): 0.0 | herbicidal effect rating, CYPSE ([9]; 0.1250 kg/ha): 0.0 | herbicidal effect rating, CYPSE ([9]; 0.2500 kg/ha): 0.0 | herbicidal rating SETVI ([10]; rate 0.0156 kg/ha): 2.0 | herbicidal rating SETVI ([10]; rate 0.0313 kg/ha): 1.0 | herbicidal rating SETVI ([10]; rate 0.0625 kg/ha): 3.0 | Preemergence herbicidal rating IPOHE ([11]; rate 0.0313 kg/ha): 0.0 | Preemergence herbicidal rating IPOHE ([11]; rate 0.0625 kg/ha): 0.0 | Preemergence herbicidal rating IPOHE ([11]; rate 0.1250 kg/ha): 1.0 | Preemergence herbicidal rating IPOHE ([11]; rate 0.2500 kg/ha): 3.0 | herbicidal rating IPOHE ([12]; rate 0.0156 kg/ha): 9.0 | herbicidal rating IPOHE ([12]; rate 0.0313 kg/ha): 9.0 | herbicidal rating IPOHE ([12]; rate 0.0625 kg/ha): 9.0

COCCN1C(=O)CSC1=Nc1cc(-n2c(=O)cc(C(F)(F)F)n(C)c2=O)c(F)cc1Cl [Compound 155, 3-{4-Chloro-2-fluoro-5-{[3-(2-methoxyethyl)-4-oxo-2-thiazolidinylidene]amino}phenyl}-1-methyl-6-(trifluoromethyl)-2,4(1H,3H)-pyrimidinedione]
Preemergence herbicidal rating AMBEL ([1]; rate 0.0625 kg/ha): 0.0 | Preemergence herbicidal rating AMBEL ([1]; rate 0.1250 kg/ha): 2.0 | Preemergence herbicidal rating AMBEL ([1]; rate 0.2500 kg/ha): 4.0 | Preemergence herbicidal rating ECHCG ([2]; rate 0.0625 kg/ha): 0.0 | Preemergence herbicidal rating ECHCG ([2]; rate 0.1250 kg/ha): 0.0 | Preemergence herbicidal rating ECHCG ([2]; rate 0.2500 kg/ha): 0.0 | herbicidal rating GLXMAW ([3]; rate 0.0156 kg/ha): 4.0 | herbicidal rating GLXMAW ([3]; rate 0.0313 kg/ha): 5.0 | herbicidal rating GLXMAW ([3]; rate 0.0625 kg/ha): 5.0 | herbicidal effect rating, ECHORC ([4]; 0.0313 kg/ha): 4.0 | herbicidal effect rating, ECHORC ([4]; 0.0625 kg/ha): 4.0 | herbicidal effect rating, ECHORC ([4]; 0.1250 kg/ha): 4.0 | herbicidal effect rating, ECHORC ([4]; 0.2500 kg/ha): 4.0 | herbicidal rating ABUTH ([5]; rate 0.0156 kg/ha): 3.0 | herbicidal rating ABUTH ([5]; rate 0.0313 kg/ha): 9.0 | herbicidal rating ABUTH ([5]; rate 0.0625 kg/ha): 9.0 | herbicidal rating ZEAMX ([6]; rate 0.0156 kg/ha): 4.0 | herbicidal rating ZEAMX ([6]; rate 0.0313 kg/ha): 4.0 | herbicidal rating ZEAMX ([6]; rate 0.0625 kg/ha): 4.0 | Preemergence herbicidal rating CASOB ([7]; rate 0.0625 kg/ha): 0.0 | Preemergence herbicidal rating CASOB ([7]; rate 0.1250 kg/ha): 0.0 | Preemergence herbicidal rating CASOB ([7]; rate 0.2500 kg/ha): 0.0 | Preemergence herbicidal rating ABUTH ([8]; rate 0.0625 kg/ha): 2.0 | Preemergence herbicidal rating ABUTH ([8]; rate 0.1250 kg/ha): 4.0 | Preemergence herbicidal rating ABUTH ([8]; rate 0.2500 kg/ha): 7.0 | herbicidal effect rating, CYPSE ([9]; 0.0313 kg/ha): 0.0 | herbicidal effect rating, CYPSE ([9]; 0.0625 kg/ha): 0.0 | herbicidal effect rating, CYPSE ([9]; 0.1250 kg/ha): 0.0 | herbicidal rating SETVI ([10]; rate 0.0156 kg/ha): 0.0 | herbicidal rating SETVI ([10]; rate 0.0313 kg/ha): 0.0 | herbicidal rating SETVI ([10]; rate 0.0625 kg/ha): 0.0 | Preemergence herbicidal rating IPOHE ([11]; rate 0.0625 kg/ha): 0.0 | Preemergence herbicidal rating IPOHE ([11]; rate 0.1250 kg/ha): 0.0 | Preemergence herbicidal rating IPOHE ([11]; rate 0.2500 kg/ha): 2.0 | herbicidal rating IPOHE ([12]; rate 0.0156 kg/ha): 2.0 | herbicidal rating IPOHE ([12]; rate 0.0313 kg/ha): 4.0 | herbicidal rating IPOHE ([12]; rate 0.0625 kg/ha): 9.0
